Assay results: patent US20260015333A1, “COMPOUNDS AND METHODS FOR INHIBITION OF THE EVOLUTION OF […]” (priority 2022, published 2026)

What was measured:
E. coli = assay: Minimum inhibitory concentration of ARM-1 alone; type: cell-based; conditions: Escherichia coli, constant for 196 hours of exposure
Source text: (§1) FIGS. 4A-4C depict how ARM-1 inhibits the evolution of antibiotic resistance. FIG. 4A depicts the minimum inhibitory concentration of ARM-1 in E. coli and S. aureus. FIGS. 4B-4C depict the evolution of indicated species against (FIG. 4B) rifampicin and (FIG. 4C) trimethoprim in the presence of ARM-1. Heatmaps show median MIC over time. Concentrations are indicated to the right of each plot. Each strain and antibiotic is the result of at least 12 biological replicates. Concentration of ARM-1 used against L. monocytogenes, P. aeruginosa, and S. aureus is 100 μM. Concentration of ARM-1 used against S. typhimurium is 50 μM. Populations of bacteria are grown overnight in a series of increasing antibiotic concentrations, with or without ARM-1 present. The following day, the population from the highest tolerated concentration is re-challenged with higher concentrations of antibiotic. […]
(§2) Next, the effect of ARM-1 on the evolution of antibiotic resistance was examined. […] Using an assay previously developed, the impact of ARM-1 was assessed on resistance development across diverse pathogens and in response to multiple classes of antibiotics. […]
(§3) Evolution experiments were performed for the indicated strains. […] Optical densities were subsequently measured in an Epoch2 microplate spectrophotometer (BioTek). […]

S. aureus = assay: Minimum inhibitory concentration of ARM-1 alone; type: cell-based; conditions: Staphylococcus aureus, constant for 196 hours of exposure
Source text: as §1, §2, §3

**Q.** Cc1cc(Br)ccc1-c1ccc(CNCCCN(C)C)o1 [ARM-1, N^1-((5-(4-bromo-2-methylphenyl)furan-2-yl)methyl)-N^3,N^3-dimethylpropane-1,3-diamine] was tested. Which MIC (E. coli) did it give?
**A.** 400 µM

**Q.** What about the MIC (S. aureus) of the same compound?
**A.** 400 µM
